Results: US20250213542A1, “DEVICES AND METHODS FOR DELIVERING SYNERGISTIC ACTIVE AGENTS TO TARGET SITES” (IRRIMAX Corporation, priority 2023, published 2025)
Where two headings read alike, the source gives them in different places.

Tests used:
Assay type in all cases: cell-based
E. coli (ATCC BAA 1427) [1] = experiment: Minimum inhibitory concentration determination, serial 2-fold dilution; settings: Escherichia coli, BAA1427, 250 μg/mL (0.025% w/w), positive control, read-out: Average Growth Inhibition (%)
Experimental: (§1) The minimal inhibitory concentration (MIC, the minimum inhibitory concentration required for 90% growth reduction) of octenidine was determined against S. aureus (ATCC 6538), P. aeruginosa (ATCC 15442), and E. coli (ATCC BAA 1427) by serial 2-fold dilution experiments. A solution of chlorhexidine (0.025% w/w) was used as a positive control and comparator.

[2] = tested on: P. aeruginosa (ATCC 15442); experiment: as above; settings: Pseudomonas aeruginosa, ATCC15442, read-out: Average Growth Inhibition (%)
Experimental: as §1

S. aureus (ATCC 6538) [3] = experiment: as above; settings: Staphylococcus aureus, ATCC6538, read-out: Average Growth Inhibition (%)
Experimental: as §1

E. coli (ATCC BAA 1427) [4] = experiment: Minimal bactericidal concentration determination, serial 2-fold dilution
Experimental: (§2) The minimal bactericidal concentration (MBC) of octenidine dihydrochloride was determined against S. aureus (ATCC 6538), P. aeruginosa (ATCC 15442), and E. coli (ATCC BAA 1427) by serial 2-fold dilution experiments. A solution of chlorhexidine (0.025% w/w) was used as a positive control and comparator.

[5] = tested on: P. aeruginosa (ATCC 15442); experiment: as above; settings: 250 μg/mL (0.025% w/w), positive control
Experimental: as §2

S. aureus (ATCC 6538) [6] = experiment: as above; settings: 250 μg/mL (0.025% w/w), positive control
Experimental: as §2

E. coli = experiment: Chequerboard assay, FIC and synergy analysis; settings: Escherichia coli
Experimental: (§3) Chlorhexidine gluconate (CHG) and octenidine dihydrochloride (OCT) were analyzed by chequerboard assay with each test organism to determine potential additive, synergistic, and antagonistic activity. The test organisms S. aureus, P. aeruginosa, and E. coli were tested at ranges of chlorhexidine gluconate (0.122-15.625 μg/ml, 1.25-160 μg/ml, and 0.125-16 μg/ml, respectively) and octenidine dihydrochloride (0.029-3.75 μg/mL, 0.029-3.75 μg/mL, and 0.029-3.75 μg/mL, respectively). FIC was calculated by the following Equation 2: […]

P. aeruginosa = experiment: Chequerboard assay, FIC and synergy analysis; settings: Pseudomonas aeruginosa
Experimental: as §3

S. aureus = experiment: Chequerboard assay, FIC and synergy analysis; settings: Staphylococcus aureus
Experimental: as §3

[7] = in presence of OCT, read-out: MIC of CHG in Presence of OCT

N=C(NCCCCCCNC(=N)NC(=N)Nc1ccc(Cl)cc1)NC(=N)Nc1ccc(Cl)cc1 [Chlorhexidine gluconate, 1-[amino-[6-[amino-[amino-(4-chlorophenyl)amino-methylidene]amino-methylidene]aminohexylimino]methyl]imino-N-(4-chlorophenyl)-methanediamine; (2R,3S,4R,5R)-2,3,4,5,6-pentahydroxyhexanoic acid.]
inhibition at 250 µg/mL (E. coli (ATCC BAA 1427) [1]): 63% | inhibition at 250 µg/mL [2]: 81% | inhibition at 250 µg/mL (S. aureus (ATCC 6538) [3]): 121% | CFU/mL (E. coli (ATCC BAA 1427) [4]): 0 CFU/mL | Number of Colonies (E. coli (ATCC BAA 1427) [4]): 0 | Number of Colonies (E. coli (ATCC BAA 1427) [4]; E. coli (ATCC BAA 1427), 250 μg/mL (0.025% w/w), positive control): no colonies | CFU/mL [5]: 0 CFU/mL | Number of Colonies [5]: 0 | Number of Colonies ([5]; listed as chlorhexidine): no colonies | CFU/mL (S. aureus (ATCC 6538) [6]): 0 CFU/mL | Number of Colonies (S. aureus (ATCC 6538) [6]): 0 | Number of Colonies (S. aureus (ATCC 6538) [6]; listed as chlorhexidine): no colonies | MIC (E. coli; [7]): 8 mg/L | MIC (E. coli; read-out: MIC of CHG Alone): 16 mg/L | MIC (P. aeruginosa; read-out: MIC of CHG Alone (μg/mL)): 32 µg/mL | MIC (P. aeruginosa; read-out: MIC of CHG in Presence of OCT (μg/mL)): 16 µg/mL | MIC (S. aureus; [7]): 2 mg/L | MIC (S. aureus; read-out: MIC of CHG Alone): 4 mg/L
